Values after ≈ are worked out from the molar mass of the structure shown.
conditions: buffer; pH 7.4; 200.0 µM

`C=CCNC(=S)N1CCN(C2CCCCC2)CC1` and `O=C(O)C1CCCCC1C(=O)NCCCN1CCCC1=O` (stereo not given) cannot be ordered by solubility kinetic: over 40.1 µg/mL for the first, 41.4 µg/mL (≈ 140 µM) for the second.

`N#CC1=C(S)N(c2ccccc2)C(c2ccco2)NC1=O` (stereo not given) and `COc1ccc(/C=C2\C(=O)ON=C2c2ccccc2)cc1` are within 1.5-fold of each other in solubility kinetic: 37 µg/mL (≈ 124 µM) for the first, 39.1 µg/mL (≈ 140 µM) for the second.

Compared with `CCOc1ccc2[nH]cc(C(=O)NCc3ccccc3)c(=O)c2c1`, `O=C(Cc1ccccc1)NCC(=O)Nc1cccc(Cl)c1` is 11-fold higher in solubility kinetic: 0.9 µg/mL (≈ 2.79 µM) for the first, 10 µg/mL (≈ 33 µM) for the second.

Going from `O=C1CC(c2cccs2)c2ccc3ccccc3c2N1` (stereo not given) to `CCn1c(NC(=O)C(C)C)c(-c2cccs2)c(=O)c2ccccc21`, the solubility kinetic rises from under 0.6 µg/mL to over 51.1 µg/mL.

Compared with `COc1ccc(C(=O)Nc2ccc3c(c2)n(C)c(=O)n3C)cc1OC`, `COc1ccc(-c2cc(C(=O)Nc3ccc(C)c(C)c3)no2)cc1` is lower in solubility kinetic: 8.4 µg/mL (≈ 24.6 µM) for the first, under 0.3 µg/mL for the second.

First: N#Cc1cccc(NC(=O)Cc2ccsc2)c1
Second: Cc1oncc1C(=O)Nc1cccc(C#N)c1
The solubility kinetic of the first is lower: 33.4 µg/mL (≈ 138 µM) for the first, over 34.1 µg/mL for the second.

Going from `Cc1ccc(NC(=O)Cn2c(=O)oc3ccccc32)cc1C` to `Cc1ccc(C)c(C(=O)c2ccccc2NC(=O)c2ccccn2)c1`, the solubility kinetic falls from 4.2 µg/mL (≈ 14.2 µM) to under 0.4 µg/mL.

Compared with `O=C(CN1C(=O)C(=O)c2ccccc21)c1ccccc1`, `COCc1c(C(=O)N2CCc3ccccc32)oc2ccccc12` is 4.4-fold lower in solubility kinetic: 33.8 µg/mL (≈ 127 µM) for the first, 7.6 µg/mL (≈ 24.7 µM) for the second.

`CC(C)N(C1=CC(=O)OC12CCCCC2)C(C)C` and `COc1c(C)cc(S(=O)(=O)N2CCOCC2)c(C)c1C` cannot be ordered by solubility kinetic: over 37.7 µg/mL for the first, over 44.9 µg/mL for the second.

`O=C(CC(=O)NCc1ccccc1)NCc1ccccc1` and `COc1ccc(CNC(=O)COC(=O)c2cccn2C)cc1` cannot be ordered by solubility kinetic: over 42.4 µg/mL for the first, over 45.3 µg/mL for the second.

`O=C(Cc1c(Cl)cccc1Cl)NC1CC1` and `CN(CC(=O)Nc1c(Cl)cccc1Cl)C(=O)Cc1ccsc1` cannot be ordered by solubility kinetic: over 36.6 µg/mL for the first, over 53.6 µg/mL for the second.

`Cc1cnc(NC(=O)Cc2cccs2)s1` and `Cc1cc(NC(=O)c2cccs2)ncc1NC(=O)C(C)(C)C` cannot be ordered by solubility kinetic: over 35.7 µg/mL for the first, 38.6 µg/mL (≈ 122 µM) for the second.

First: Cc1cccc(CC(=O)N2CCN(C(=O)c3ccco3)CC2)c1
Second: Cc1ccc(S(=O)(=O)N2CCN(C(=O)CNC(=O)c3ccc(Cl)cc3)CC2)cc1
The solubility kinetic of the first is higher: over 46.9 µg/mL for the first, 8.1 µg/mL (≈ 18.6 µM) for the second.

Going from `CC(OC(=O)c1ccc(C#N)cc1)C(=O)Nc1ccc(Cl)cn1` (stereo not given) to `O=C(COC(=O)c1ccc(F)cc1)Nc1ccc(Cl)cn1`, the solubility kinetic falls from 5.4 µg/mL (≈ 16.4 µM) to 0.8 µg/mL (≈ 2.59 µM) (6.8-fold).

`CSc1ccc(CN(C)C(=O)c2cc(Cl)c3c(c2)OCCO3)cc1` and `O=C(O)Cc1ccc(NC(=O)Nc2ccc3c(c2)OCO3)cc1` cannot be ordered by solubility kinetic: over 54.6 µg/mL for the first, over 47.1 µg/mL for the second.

First: O=C1/C(=C/c2ccncc2)N=C2CCCCCN12
Second: CN(C(=O)COC(=O)Cc1ccc(Cl)cc1)C1CCCCC1
The solubility kinetic of the first is lower: 33.9 µg/mL (≈ 140 µM) for the first, over 48.6 µg/mL for the second.

`O=C(COC(=O)c1ccc2ncsc2c1)Nc1ccccc1Cl` and `O=C(COC(=O)c1ccc2ncsc2c1)Nc1ccc(OC(F)(F)F)cc1` are within 1.5-fold of each other in solubility kinetic: 4 µg/mL (≈ 11.5 µM) for the first, 4.4 µg/mL (≈ 11.1 µM) for the second.

Going from `COc1ccccc1CNC(=O)CSc1nc(C)cs1` to `COc1cc(C(C[N+](=O)[O-])c2c(C)cc3ccccn23)ccc1O` (stereo not given), the solubility kinetic falls from over 46.3 µg/mL to 8.9 µg/mL (≈ 27.3 µM).

Going from `CC(C)Oc1ccc(Cc2cnc(=S)[nH]c2N)cc1` to `COc1ccc(CCNC(=O)c2ccc([N+](=O)[O-])cc2)cc1`, the solubility kinetic falls from 15.4 µg/mL (≈ 55.9 µM) to 5.3 µg/mL (≈ 17.6 µM) (2.9-fold).

First: CCCS(=O)(=O)N1CCCC(C(=O)Oc2ccc(C)c(C)c2)C1 (stereo not given)
Second: COc1ccc(OC)c(S(=O)(=O)NCCCN2CCOCC2)c1.Cl
The solubility kinetic of the first is lower: under 0.7 µg/mL for the first, over 57.1 µg/mL for the second.

First: Cc1ccc(-c2nc(-c3ccccn3)no2)cc1[N+](=O)[O-]
Second: O=C(Nc1ncccn1)c1ccc([N+](=O)[O-])cc1[N+](=O)[O-]
The solubility kinetic of the first is 5.2-fold lower: 7.4 µg/mL (≈ 26.2 µM) for the first, 38.7 µg/mL (≈ 134 µM) for the second.

Going from `O=C(COC(=O)CCc1ccc(S(=O)(=O)N2CCOCC2)cc1)Nc1ccccc1OC(F)F` to `Cc1ccc(OCCCC(=O)ON=C(N)c2ccccc2C)cc1`, the solubility kinetic falls from 49.5 µg/mL (≈ 99.3 µM) to 19.9 µg/mL (≈ 61 µM) (2.5-fold).

Compared with `NS(=O)(=O)c1ccc(CNC(=O)c2cnccn2)cc1`, `COC(=O)c1ccc(/C=C/C(=O)OCC(=O)NCc2cccs2)cc1` is lower in solubility kinetic: over 43.8 µg/mL for the first, 27.4 µg/mL (≈ 76.2 µM) for the second.

First: CCCCOP(=O)(c1ccc(N(C)C)cc1)C(O)c1ccc(N(C)C)cc1 (stereo not given)
Second: COC(=O)c1ccc(C(=O)Nc2ccc(C(C)C)cc2N)cc1
The solubility kinetic of the first is higher: over 58.6 µg/mL for the first, 2.5 µg/mL (≈ 8 µM) for the second.

Going from `Cc1cc(C)c(NC(=O)CN(C)CC(=O)Nc2cccc(S(=O)(=O)N(C)c3ccccc3)c2)c(C)c1.O=C(O)C(=O)O` to `Cc1nc2ccccc2c(=O)n1-c1cccc(C(F)(F)F)c1`, the solubility kinetic rises from 14.3 µg/mL to 43.6 µg/mL (≈ 143 µM) (3-fold).

First: CC(Sc1nc(N)cc(=O)[nH]1)C(=O)Nc1nc2c(s1)CCCC2 (stereo not given)
Second: CCC(=O)Nc1ccc(C(=O)CSc2nc(N)cc(N)n2)cc1
The solubility kinetic of the first is 5.6-fold lower: 8.7 µg/mL (≈ 24.8 µM) for the first, 48.3 µg/mL (≈ 146 µM) for the second.

`CCC(C)NC(=O)C1CCC(=O)N1CCc1ccccc1` (stereo not given) and `COc1ccccc1C(=O)OC1CCCN(C)C1.Cl` (stereo not given) cannot be ordered by solubility kinetic: over 43.3 µg/mL for the first, over 42.9 µg/mL for the second.

Compared with `CN1C(=O)C2C3c4ccccc4C(c4ccccc43)[C@@H]2C1=O` (stereo not given in full), `O=C(Nc1ccccc1F)c1c[nH]c(=O)[nH]c1=O` is 2.8-fold higher in solubility kinetic: 2 µg/mL (≈ 6.91 µM) for the first, 5.5 µg/mL (≈ 22.1 µM) for the second.

Going from `COc1cc(OC)c(NC(=O)c2csc(C)c2)cc1Cl` to `NC(=O)c1ccccc1NC(=O)CC12CC3CC(CC(C3)C1)C2`, the solubility kinetic rises from under 0.7 µg/mL to 4.1 µg/mL (≈ 13.1 µM).

`CC(C)CN1C(=O)C(=O)N(CC(=O)c2ccc[nH]2)C1=O` and `C/C(=C\c1ccccc1)CN1CCN(Cc2ccc(C)o2)C(CCO)C1` (stereo not given) are within 1.5-fold of each other in solubility kinetic: 40.7 µg/mL (≈ 147 µM) for the first, 42.2 µg/mL (≈ 119 µM) for the second.

From PubChem BioAssay AID1996
